Counter-ions that a name gives are not always drawn. Like-named read-outs stand apart in the source and are kept apart here.
What was measured:
[1] = Storage stability of the crystalline form at controlled temperature and relative humidity; assay type: physicochemical; details: up to at least 24 weeks, hydrochloride
Description: Particularly, crystalline Vemurafenib HCl form II has high chemical purity and excellent stability properties. […] Therefore, the crystalline Vemurafenib HCl form II may be used to prepare an oral formulation which is stable and has a relatively small tablet or capsule size as the molar ratio of Vemurafenib to HCl is about 1:1, which is highly advantageous for preparing pharmaceutical compositions with high drug load.

Solubility = assay type: physicochemical
[2] = as observed in WO 2010/114928 and WO 2010/129570; cited from earlier work
[3] = conditions not given; cited from earlier work
[4] = 25° C. and 60% relative humidity (RH)

| stability upon storage [1, 4] | stability upon storage ([1]; 30° C./65% RH) | solubility (Solubility) | Structure (SMILES) | solubility [2] | stability of amorphous form [3] |
| --- | --- | --- | --- | --- | --- |
| converts to Vemurafenib free base | converts to Vemurafenib free base | – | CCCS(=O)(=O)Nc1ccc(F)c(C(=O)c2c[nH]c3ncc(-c4ccc(Cl)cc4)cc23)c1F [crystalline Vemurafenib HCl form I, Vemurafenib hydrochloride] | – | – |
| stable | stable | good solubility | CCCS(=O)(=O)Nc1ccc(F)c(C(=O)c2c[nH]c3ncc(-c4ccc(Cl)cc4)cc23)c1F [crystalline Vemurafenib HCl form II, Vemurafenib hydrochloride] | – | – |
| – | – | – | CCCS(=O)(=O)Nc1ccc(F)c(C(=O)c2c[nH]c3ncc(-c4ccc(Cl)cc4)cc23)c1F [Vemurafenib, propane-1-sulfonic acid {3-[5-(4-chlorophenyl)-1H-pyrrolo[2,3-b]pyridine-3-carbonyl]-2,4-difluoro-phenyl}-amide] | extremely low solubility | – |
| – | – | – | CCCS(=O)(=O)Nc1ccc(F)c(C(=O)c2c[nH]c3ncc(-c4ccc(Cl)cc4)cc23)c1F [Amorphous Vemurafenib] | – | not stable |
